Measured values: US9649350B2, “Use for dendropanax morbifera extract for adjusting 15- hydroxyprostaglandin dehydrogenase and PGE 2 activity” (INDUSTRY-ACADEMIC COOPERATION FOUNDATION, CHOSUN UNIVERSITY, priority 2012, dated 2017)

Legend:
[1] = tested on: HaCaT cells; assay: In vitro scratch analysis in HaCaT cells; assay type: cell-based, human; conditions: scratch model with 15-PGDH and its coenzyme NAD+
Experimental: For in vitro scratch analysis (Hintermann et al., 2001; Koivisto et al., 2006), HaCaT cells were seeded 3×10^5 cells per well on 6-well plates and cultured until 80% confluence was reached. Then, culture medium was replaced with serum-free medium containing mitomycin (10 μg/mL) and cells were cultured for 2 hours to block the proliferation of wound and washed with PBS. Scratch was made by sterilized 200 μL pipette tip and washed again.
The process of wound healing was observed by taking photographs of identical spots before and after the culture. Experiment was repeated for 3 times and representative photos were illustrated Immediately after the formation of scratch, photos of scratch were taken by microscope (×100) and 48 hours after the culture, photos were taken once more. By measuring the distance between scratch, the % recovery rate by drug was calculated in comparison with the negative control group.
In the meantime, in order to investigate whether PGE2 is directly involved in scratch healing, 15-PGDH and its coenzyme NAD^+ were treated in identical model system.

[2] = tested on: ICR mice; assay: In vivo wound healing, 5 mm circular wound, H&E tissue staining; conditions: TGF-β1 20 ng/day
Experimental: To confirm the wound healing effect of Dendropanax morbifera extract of the present invention in vivo, following experiments were conducted. First, 7 week old male ICR mice (average weight: 25 g) were purchased from Damul Science Co. (Daejuen, Korea) and after a week of adjustment period, they were anesthetized by administering anesthetic (zoletil, 50 μL) into the abdominal cavity and then circular wound with diameter of 5 mm was made under anesthesia. From a day later, being divided into 4 groups, wound of each group was treated with drugs daily basis as below while 10 μL of drugs were applied to wound of each group and the degree of healing was observed by tissue staining Animal experiments conducted in the examples were approved by Chonnam National University animal experiment ethics committee (IRB) (CNU IACUC-YB-R-2012-12) and tissue staining was done by fragmenting the wounded tissue of mice on which the above experiment of 4 groups was conducted and stained with hemtoxylin-Eosin (H & E). The distance of recovered wound was measured by visualizing stained tissues with microscope (40×). Moreover, the wound healing efficiency was calculated based on the distance measured.

[3] = tested on: ICR mice; assay: In vivo gastric ulcer prevention, HCl/ethanol-induced gastric lesion; conditions: oral, 24 h and 1 h before HCl/ethanol; DMHE 0.87 mg/kg, sucralfate 100 mg/kg
Text: To investigate the prevention effect of Dendropanax morbifera for gastric ulcer, […] male ICR mice with weight of 20±2 g were used. The mice above were purchased from Damul Science Co. (Daejuen, Korea). Animal experiments conducted in the examples were approved by Chonnam National University animal experiment ethics committee (IRB) (CNU IACUC-YB-R-2012-11).
The above-described animals were divided into 3 groups (for each group, n=7) that comprise normal group (vehicle 0.5% CMC (carboxyl methylcellulose)), positive control group (sucralfate, 100 mg/kg in 0.5% CMC) and experimental group (Dendropanax morbifera leaf hexane extract in 0.5% CMC).
Balanced diet was provided to the animals and they were allowed to drink water freely. One week later, animals were forced to fast for all day long. 24 hours before inducing the […] bleeding, Dendropanax morbifera hexane extract (DMHE, dissolved in 0.5% CMC) was administered with oral dose of 0.87 mg/kg and administered once more 1 hour before HCl/ethanol was applied. It was conducted for the negative (0.5% CMC, 1 mL/kg) and positive control group (sucralfate, 100 mg/kg in 0.5% CMC) simultaneously. By administering HCl/ethanol mixture containing 150 mM HCl in 60% ethanol into stomach, gastric lesion of hemorrhage was induced. […]

| Substance | wound healing effect on treatment with 15-PGDH and NAD+ [1] | distance between wound ([2]; 4th day after drug treatment) [mm] | % of healing compared to initial wound diameter (5 mm) ([2]; 4th day) [%] | gastric lesion (bleeding, edema) [3] |
| --- | --- | --- | --- | --- |
| TGF-β1: transforming growth factor β1, a cytokine; positive control for wound healing | completely vanished | 1.72 | 65.6 | – |
| sucralfate | – | – | – | have not shown any type of lesion |
